Laboratory results: US11638689B2, “Deep topical systemic nitric oxide therapy apparatus and method” (SYK Technologies LLC, priority 2013, dated 2023)

Tested on: bacteria on a surface, such as a person's skin
Test: Nitric oxide dose required to kill bacteria on a surface
Details: ppm of nitric oxide

**Q.** How did the “dose required to kill bacteria on a surface” value turn out when `[N]=O` [nitric oxide] was run?
**A.** The value was ≥ 320 ppm.
